EC50, IC50 and melting point data for 10 compounds are collected here from US7244763B2, “Compounds that modulate PPAR activity and methods of preparation” (Warner Lambert Company LLC, priority 2003, dated 2007).

Usually EC50 stands for the concentration giving half of the maximal effect. The IC50 is the concentration needed to halve the response being measured. A word on the melting point: it is the temperature of the solid-liquid transition.

Each structure is given as a SMILES string.

One data set deals with T1, hPPARβ (Homo sapiens, UniProt Q03181).
T1 construct: expression plasmids encoding hPPARα, hPPARβ or mPPARγ chimeric receptors
T1 sequence (Q03181 171-441 limits assumed): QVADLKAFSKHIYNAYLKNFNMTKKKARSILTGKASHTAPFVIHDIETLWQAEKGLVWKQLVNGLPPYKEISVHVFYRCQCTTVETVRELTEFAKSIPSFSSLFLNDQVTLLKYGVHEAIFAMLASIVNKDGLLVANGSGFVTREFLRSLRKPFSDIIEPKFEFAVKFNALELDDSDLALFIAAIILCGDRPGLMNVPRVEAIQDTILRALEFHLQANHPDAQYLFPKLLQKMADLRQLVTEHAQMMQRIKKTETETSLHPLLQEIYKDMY
Put plainly: Test A transient transfection assay, HepG2 cells, Gal4-PPAR chimeric receptor luciferase reporter (Hep G2-hBeta). It is filed as cell-based. The conditions noted are these: HepG2 cells transfected with hPPARβ chimeric receptor, 24 hours, read-out: EC50β (Hep G2-hBeta EC50). The procedure: (§1) 1. Test A. Transient Transfections Assay Using the HepG2 Hepatoma Cell Line.
(§2) HepG2 cells were transiently transfected with an expression plasmids encoding hPPARα, hPPARβ or mPPARγ chimeric receptors and a reporter containing the yeast upstream activating sequence (UAS) upstream of the viral E1B promoter controlling a luciferase reporter gene. In addition, the plasmid pRSVβ-gal was used to control for transfection efficiency. HepG2 cells were grown in DMEM supplemented with 10% FBS and 1 μM non-essential amino acid. On the first day, cells were split into 100 mm dishes at 2.5×10^6/dish and incubated overnight at 37C.°/5% CO2. On the second day the cells were transiently transfected with plasmid DNA encoding a chimeric receptor, the luciferase reporter gene; and β-gal. For each 100 mm dish, 15 μg of luciferase reporter (PG5E1b) DNA, 15 μg of Gal4-PPAR chimeric receptor DNA, and 1.5 μg of β-gal plasmid DNA were mixed with 1.4 ml of opti-MEM in the tube. 281 μl of LipoFectamine-2000 reagent was added to 1.4 ml of opti-MEM in the tube, and incubate for 5 min at RT. The diluted Lipofectamine-2000 reagent was combined with the DNA mixture, and incubate for 20 min at RT. After fresh medium was added to each 100 mm dish of cells, 2.8 ml of Lipofectamine2000-DNA mixture was added dropwise to the 100 mm dish containing 14 ml of medium, and incubate 37° C. overnight. […]
For orientation: Reporter assays use an easily measured gene product as a stand-in for the process of interest.

The target of another data set is T2, human PPARβ LBD (Homo sapiens, UniProt Q03181).
T2 construct: made in house; host or cells: E. coli BL21(DE3)pLysS
T2 sequence (Q03181 211-439 limits assumed): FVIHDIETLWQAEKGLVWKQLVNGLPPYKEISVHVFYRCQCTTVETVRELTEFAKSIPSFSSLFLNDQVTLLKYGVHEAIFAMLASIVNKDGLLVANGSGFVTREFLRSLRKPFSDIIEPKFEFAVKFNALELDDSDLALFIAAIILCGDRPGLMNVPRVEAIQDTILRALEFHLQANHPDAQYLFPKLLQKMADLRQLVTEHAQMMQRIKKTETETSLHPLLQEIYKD
Description: Test B radioligand competition binding assay (SPA), PPARβ LBD-GST fusion protein. The conditions noted are these: concentration that inhibits 50% of interaction between PPARβ LBD and tritiated ligand. From the text:
2. Test B. Radioligand Binding Assay
The ability of a compound to interact with PPARβ can be determined using a competition-based receptor binding assay that employs a radiolabeled PPARβ ligand together with a fragment of the PPARβ receptor containing the ligand binding domain (LBD) fused to the protein glutathione-S-transferase (GST). • [1] Preparation of PPARβ LBD-GST fusion protein. The ligand binding domain of the human PPARβ LBD-GST fusion protein can be expressed in E. coli and purified as outlined below. DNA encoding the LBD of human PPARβ is amplified via PCR and inserted in-frame into the bacterial expression vector pGEX-2t PPARβ LBD-GST fusion proteins are expressed in BL21(DE3)pLysS cells. After a 1–2 hr incubation with up to 1 mM IPTG, the cells are lysed by freeze-thaw in buffer containing 50 mM Tris (pH=8), 250 mM KCl, 10 mM DTT, 1 mM PMSF, and 1% triton X-100. After room temperature DNAse and RNAse treatment for 15 min and centrifugation for 1 hr at 50,000×g, 1.5 ml of a glutathione-Sepharose 4B slurry in PBS is added to the resulting supernatant and the mixture is incubated at room temperature for 30 min. […] After incubation with shaking at room temperature for 30 minutes, radioactivity bound to the PPARβ LBD-GST fusion protein/anti-GST/SPA antibody-binding bead complex is assessed using a Wallac MicroBeta plate reader. […]
Background: Loss of bound radioactivity is the signal in a displacement assay; it reports binding, not function.

The next data set deals with T3, PPARαLBD (Homo sapiens, UniProt Q07869).
T3 construct: GST (inferred from 'similar procedure')
T3 sequence (Q07869 239-466 limits assumed): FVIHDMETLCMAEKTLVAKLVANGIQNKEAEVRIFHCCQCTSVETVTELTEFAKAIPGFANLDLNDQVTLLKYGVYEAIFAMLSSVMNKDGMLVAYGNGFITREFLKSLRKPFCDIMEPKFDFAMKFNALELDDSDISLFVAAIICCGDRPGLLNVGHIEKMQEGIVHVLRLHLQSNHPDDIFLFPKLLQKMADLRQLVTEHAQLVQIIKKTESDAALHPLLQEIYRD
Put plainly: Test B radioligand competition binding assay, similar procedure with PPARα LBD. Particulars: competition binding to PPARα LBD.

For another data set, the target named is T4, hPPARα (Homo sapiens, UniProt Q07869).
T4 construct: expression plasmids encoding hPPARα, hPPARβ or mPPARγ chimeric receptors
T4 sequence (Q07869 200-468 limits assumed): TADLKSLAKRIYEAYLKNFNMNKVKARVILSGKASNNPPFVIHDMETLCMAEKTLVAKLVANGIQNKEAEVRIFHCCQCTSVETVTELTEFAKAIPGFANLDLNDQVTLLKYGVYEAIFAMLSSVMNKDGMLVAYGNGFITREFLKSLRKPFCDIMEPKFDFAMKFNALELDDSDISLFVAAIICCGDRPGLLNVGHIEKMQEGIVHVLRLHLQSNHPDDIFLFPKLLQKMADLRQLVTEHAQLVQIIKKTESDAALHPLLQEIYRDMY
Description: Test A transient transfection assay, HepG2 cells, Gal4-PPAR chimeric receptor luciferase reporter (Hep G2-hAlpha). It counts as cell-based. The conditions noted are these: HepG2 cells transfected with hPPARα chimeric receptor, 24 hours, read-out: EC50α (Hep G2-hAlpha EC50). The procedure: as §1, §2

As to `O=C(O)CC1CCc2cc(SCc3ccc(-c4ccc(C(F)(F)F)cn4)cc3)ccc2O1` (centres unmarked) [Compound 10, {6-[4-(5-Trifluoromethyl-pyridin-2-yl)-benzylsulfanyl]-chroman-2-yl}-acetic acid], the EC50 at hPPARβ amounted to 6660 nM. In the case of `COc1cc(C(C)(C)C(=O)O)ccc1SCc1ccc(-c2ccc(C(F)(F)F)cn2)cc1` [Compound 21, 2-{3-Methoxy-4-[4-(5-trifluoromethyl-pyridin-2-yl)-benzylsulfanyl]-phenyl}-2-methyl-propionic acid], the EC50 on hPPARβ stood at 303 nM. This compound also displayed an IC50 on human PPARβ LBD of 449 nM.

Compound `O=C(O)COc1ccc(SCc2ccc(OC3CCc4cc(Cl)ccc43)cc2)c2c1CCC2` (centres unmarked) [Compound 23, {7-[4-(5-Chloro-indan-1-yloxy)-benzylsulfanyl]-indan-4-yloxy}-acetic acid] registered a melting point of 169 to 170 °C. Compound `O=C(O)Cc1coc2cc(OCc3cc(-c4ccc(Cl)cc4)on3)ccc12` [Compound 24, {6-[5-(4-Chloro-phenyl)-isoxazol-3-ylmethoxy]-benzofuran-3-yl}-acetic acid] gave a melting point of 193 to 194 °C.

As for `O=C(O)Cc1coc2cc(OCc3ccc(OCc4ccc(C(F)(F)F)cc4)cc3)ccc12` [Compound 25, {6-[4-(4-Trifluoromethyl-benzyloxy)-benzyloxy]-benzofuran-3-yl}-acetic acid], the melting point was 161 to 163 °C. For the compound `Cc1cc(SCCCc2ccc3ccccc3c2)ccc1OCC(=O)O` [Compound 27, [2-Methyl-4-(3-naphthalen-2-yl-propylsulfanyl)-phenoxy]-acetic acid], the IC50 on PPARαLBD was determined as 3540 nM. On human PPARβ LBD, `Cc1cc(SCCCCOc2ccc(Cl)cc2Cl)ccc1OCC(=O)O` [Compound 31, {4-[4-(2,4-Dichloro-phenoxy)-butylsulfanyl]-2-methyl-phenoxy}-acetic acid] registered an IC50 of 6.8 nM. In other words, the single-digit nanomolar range. As to `O=C(O)C1(c2ccc(SCc3ccc(-c4ccc(C(F)(F)F)cc4)cc3)cc2)CC1` [Compound 36, 1-[4-(4′-Trifluoromethyl-biphenyl-4-ylmethylsulfanyl)-phenyl]-cyclopropanecarboxylic acid], at hPPARα, the EC50 amounted to 1960 nM.

Consider `O=C(O)Cc1csc2c(OCc3cc(-c4ccc(Cl)cc4)on3)cccc12` [Compound 77, {7-[5-(4-Chloro-phenyl)-isoxazol-3-ylmethoxy]-benzo[b]thiophen-3-yl}-acetic acid], for which the melting point is 229 to 230 °C (dec.). Still for that read-out and setting: as for `Cc1cc2c(CC(=O)O)csc2cc1OCc1ccccc1OCc1ccc(C(F)(F)F)cc1` [Compound 78, {5-Methyl-6-[2-(4-trifluoromethyl-benzyloxy)-benzyloxy]-benzo[b]-thiophen-3-yl}-acetic acid], the figure is 157 to 158 °C.
